The nature of data set [1]: Cytotoxicity against mouse peritoneal macrophages assessed as reduction in cell viability incubated for 24 hrs by MTT assay. The class given is toxicity, cell-based, Peritoneal macrophage.
Data set [2] concerns Leishmania major. Kind of data set: Antileishmanial activity against Leishmania major MRHO/IR/75/E promastigotes assessed as parasite growth inhibition incubated for 24 hrs by MTT assay. It is filed as functional, organism-based. (Tetrazolium dyes change colour on reduction, which living cells bring about.)
For data set [3], the system named is Leishmania donovani. The experiment in a line: Antileishmanial activity against Leishmania donovani promastigotes assessed as parasite growth inhibition. The class given is functional, organism-based.
In data set [4] the test system is Leishmania major. The experiment in a line: Antileishmanial activity against Leishmania major assessed as inhibition of parasite growth. The class given is functional, organism-based.
For data set [5], the system named is Leishmania major. The experiment in a line: Antileishmanial activity against Leishmania major promastigotes assessed as parasite growth inhibition at 1 uM incubated for 72 hrs by MTT assay. The class given is functional. To be noted: read-out: GI.
Data set [6] has as its system Leishmania major. The experiment in a line: Antileishmanial activity against Leishmania major promastigotes assessed as parasite growth inhibition at 100 uM incubated for 72 hrs by MTT assay. The class given is functional. To be noted: read-out: GI.
The subject of data set [7] is Leishmania major. The experiment in a line: Antileishmanial activity against Leishmania major promastigotes assessed as parasite growth inhibition at 0.1 uM incubated for 72 hrs by MTT assay. The class given is functional. The conditions noted are these: read-out: GI.
In data set [8] the test system is Leishmania major. The experiment in a line: Antileishmanial activity against Leishmania major promastigotes assessed as parasite growth inhibition at 10 uM incubated for 72 hrs by MTT assay. It is filed as functional. To be noted: read-out: GI.
In data set [9] the test system is Leishmania aethiopica. The experiment in a line: Antileishmanial activity against Leishmania aethiopica promastigotes assessed as parasite growth inhibition incubated for 24 hrs by alamar blue staining based analysis. It is filed as functional, organism-based. Background: The colour change of resazurin is a common sign of viable cells or microbes.
The subject of data set [10] is Leishmania aethiopica. The experiment in a line: Antileishmanial activity against Leishmania aethiopica axenic amastigotes assessed as parasite growth inhibition incubated for 72 hrs by resazurin staining based analysis. It is filed as functional, organism-based.

The structures appear in SMILES notation.

Data on eleven compounds can be found in ChEMBL document CHEMBL5244214, “An update on small molecule strategies targeting leishmaniasis” (Eur J Med Chem, 2018).

By IC50 is commonly meant the concentration needed to halve the response being measured. As to `COc1ccc(CCNC(=O)CSc2nnc(-c3ccc([N+](=O)[O-])o3)s2)cc1OC`, the IC50 at 24 h in [1] was found to be 56 µM. For the same compound, the IC50 in data set [2] was 19.1 µM. In the case of `CN1CCN(C(c2c(O)c3ccccc3oc2=O)c2c[nH]c3ccccc23)CC1` (stereo unspecified), the IC50 in [3] stood at 13.1 µM.

Turning to `O=[N+]([O-])c1ccc(-c2nnc(NCCCO)s2)s1`, the IC50 in data set [4] amounted to 3 µM.

Turning to `COc1ccc(NC(=O)CCC(=O)O)c([N+](=O)[O-])c1`, the inhibition of growth at 1 µM in data set [5] was 45.5%. Also, in data set [6], the inhibition of growth at 100 µM came to 56.8%. Moreover, the inhibition of growth at 0.1 µM in data set [7] amounted to 59.3%. Also, in data set [8], the inhibition of growth at 10 µM came to 50.4%. `O=c1oc2ccccc2c(O)c1C(c1ccoc1)N1CCOCC1` (stereo unspecified): the IC50 in data set [3] was 14.7 µM. Turning to `Cc1cccc2cc(C(c3c(O)c4ccccc4oc3=O)N3CCN(C)CC3)c(Cl)nc12` (stereo unspecified), in [3], the IC50 was 6.9 µM. Turning to `CCCNC(=O)CSc1nnc(-c2ccc([N+](=O)[O-])o2)s1`, in data set [1], the IC50 at 24 h was 59.7 µM. Moreover, the IC50 in data set [2] was 19.5 µM. On to `O=C(CSc1nnc(-c2ccc([N+](=O)[O-])o2)s1)NCc1ccccc1`, for which the IC50 at 24 h in [1] turned out to be 86.9 µM. For the same compound, the IC50 in data set [2] was 46.7 µM. As for `COCCCNc1nnc(-c2ccc([N+](=O)[O-])s2)s1`, in data set [4], the IC50 came to 3 µM. `COc1nc(OC)nc(N(CC(=O)[C@@H](N)C(C)C)CC(=O)[C@@H](N)C(C)C)n1`: the IC50 in [9] worked out at 1.4 µM; in [10] it was 0.22 µM. With `C[C@@H]1[C@H](O)[C@@H](C)/C=C/C=C/C=C/C=C/C=C/C=C/C=C/[C@H](O[C@@H]2O[C@H](C)[C@@H](O)[C@H](N)[C@@H]2O)C[C@@H]2O[C@](O)(C[C@@H](O)C[C@@H](O)[C@H](O)CC[C@@H](O)C[C@@H](O)CC(=O)O[C@H]1C)C[C@H](O)[C@H]2C(=O)O` [AMPHOTERICIN B], the inhibition of growth at 1 µM in data set [5] came out at 74.8%. For the same compound, the inhibition of growth at 100 µM in data set [6] was 79.8%. The inhibition of growth at 0.1 µM in data set [7] worked out at 69.8%. Moreover, the inhibition of growth at 10 µM in [8] was 76.3%.
